Experimental data as given in the NIST ThermoML archive (doi:10.1016/j.fluid.2004.12.007).
± gives the expanded uncertainty stated by the source.

Settings: Liquid; for mass density: 298.15 K, 101.33 kPa

CC(C)CC(C)(C)C [2,2,4-trimethylpentane]
mass density: 687.72 ± 0.9 kg/m3 | vapor or sublimation pressure (370.45 K): 95.96 ± 0.59 kPa | vapor or sublimation pressure (372.45 K): 101.3 ± 0.6 kPa

COC(C)(C)C [2-methoxy-2-methylpropane]
mass density: 735.4 ± 0.97 kg/m3 | vapor or sublimation pressure (326.55 K): 95.96 ± 0.64 kPa | vapor or sublimation pressure (328.35 K): 101.3 ± 0.6 kPa

CC(C)OC(C)C [diisopropyl ether]
mass density: 718.14 ± 0.95 kg/m3 | vapor or sublimation pressure (339.95 K): 95.96 ± 0.8 kPa | vapor or sublimation pressure (341.35 K): 101.3 ± 0.8 kPa

COCOC [dimethoxymethane]
mass density: 847.51 ± 1.1 kg/m3 | vapor or sublimation pressure (313.75 K): 95.96 ± 0.75 kPa | vapor or sublimation pressure (315.25 K): 101.3 ± 0.8 kPa
